{"source": "PubChem BioAssay AID1347408", "about": "(Pan Lab, Icahn School of Medicine at Mount Sinai, 2020)", "note": "Results filed as inconclusive are left out. The source made the active and inactive calls.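 The calls were made as follows: active = IC50 half-inhibiting concentration at or below 10 micromolar; inconclusive = IC50 above 10 and up to 20 micromolar; inactive = IC50 above 20 micromolar.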"}
{"target": "E3 ubiquitin-protein ligase RBX1 (Homo sapiens) + Cullin-1 (Homo sapiens) (UniProt P62877+Q13616)", "sequence (P62877 whole entry, looked up)": "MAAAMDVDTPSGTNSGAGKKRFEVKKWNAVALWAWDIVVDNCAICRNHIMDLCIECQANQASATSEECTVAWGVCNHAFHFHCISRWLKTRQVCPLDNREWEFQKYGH", "sequence (Q13616 whole entry, looked up)": "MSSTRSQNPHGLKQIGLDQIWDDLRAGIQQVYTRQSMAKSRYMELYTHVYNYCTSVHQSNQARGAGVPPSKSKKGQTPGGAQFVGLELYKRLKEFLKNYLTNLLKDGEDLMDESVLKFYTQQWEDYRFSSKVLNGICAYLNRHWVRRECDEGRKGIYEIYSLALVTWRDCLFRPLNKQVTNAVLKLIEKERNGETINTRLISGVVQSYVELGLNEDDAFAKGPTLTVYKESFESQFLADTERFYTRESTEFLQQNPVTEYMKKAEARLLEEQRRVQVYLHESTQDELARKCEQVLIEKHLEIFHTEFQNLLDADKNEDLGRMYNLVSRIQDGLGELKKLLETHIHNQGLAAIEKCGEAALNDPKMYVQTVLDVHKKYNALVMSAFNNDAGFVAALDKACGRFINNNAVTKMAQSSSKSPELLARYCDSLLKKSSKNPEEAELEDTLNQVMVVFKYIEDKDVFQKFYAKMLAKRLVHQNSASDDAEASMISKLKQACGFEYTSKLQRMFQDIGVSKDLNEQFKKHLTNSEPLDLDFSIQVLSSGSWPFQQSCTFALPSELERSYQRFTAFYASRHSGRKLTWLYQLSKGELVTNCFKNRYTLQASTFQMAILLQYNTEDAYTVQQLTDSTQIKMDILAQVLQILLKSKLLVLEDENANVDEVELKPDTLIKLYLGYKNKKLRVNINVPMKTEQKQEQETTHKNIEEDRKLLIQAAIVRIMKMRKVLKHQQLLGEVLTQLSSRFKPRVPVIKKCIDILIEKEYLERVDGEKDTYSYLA", "assay": "ROC1-CUL1 CTD ubiquitination inhibitors, dose response, biochemical, FRET, E1/Cdc34 cascade (AID 1347408)", "settings": "in vitro di-Ub FRET"}
{"smiles": "CCNc1ccc(Br)cc(C(=O)/C=C/c2c(Cl)cccc2Cl)c1=O", "IC50": "inactive"}
{"smiles": "COc1ccc(C=C2C(=O)N(Cc3ccco3)C(=O)N(C(C)C)C2=O)cc1", "IC50": "inactive"}
{"smiles": "Cc1ccc([C@@H]2Nc3c(ccc(C(=O)O)c3C)[C@@H]3C=CC[C@@H]32)cc1", "IC50": "inactive"}
{"smiles": "Cc1ccc2c(c1)-c1c(c(C(=O)N3CCN(c4cc(C)ccc4C)CC3)nn1C)CS2", "IC50": "inactive"}
{"smiles": "CCOc1cccc2c1N[C@@H](c1ccc(C(=O)O)cc1)[C@H]1CC=C[C@@H]21", "IC50": "inactive"}
{"smiles": "CCOc1ccc2nc3cc(NC(=O)c4ccco4)ccc3c(N)c2c1", "IC50": "4.8 µM"}
{"smiles": "CNc1ccccc(C(=O)C=Cc2ccc3c(c2)OCO3)c1=O", "IC50": "inactive"}
{"smiles": "NCCCSc1nc2c(c(=O)n1Cc1ccccc1)C1(CCCCC1)Cc1ccccc1-2", "IC50": "inactive"}
{"smiles": "CN(CCC(=O)C=Cc1ccc(Cl)c(Cl)c1)CCc1ccc2c(c1)OCO2", "IC50": "inactive"}
{"smiles": "CCCCCCCCCOc1ccc(C#CC(=O)O)cc1", "IC50": "4.2 µM"}
{"smiles": "Cc1ccc(NC(=O)c2ccc(Cl)cc2Cl)c(S(=O)(=O)O)c1", "IC50": "inactive"}
